Laboratory results as given in paper PMC12446542, “Neddylation inhibitor MLN4924 enhances H3K18 lactylation via binding to LDH and downregulates ITGB4 to block metastasis” (The Journal of Biological Chemistry, 2025).

Target: T1, LDHA (Homo sapiens, UniProt P00338)
T1 construct: purified recombinant LDHA protein (CUSABIO, CSB-EP012832HU)
Assay: SPR (Biacore 8K, LDHA immobilized on CM5 chip, steady-state analysis); supported by CETSA in SK-BR-3 cells
Format: binding
Source text: SPR (Biacore 8K, LDHA immobilized on CM5 chip, steady-state analysis); supported by CETSA in SK-BR-3 cells on LDHA | using purified recombinant LDHA protein and MLN4924.

Kd: 35.5 µM
Structure (SMILES): NS(=O)(=O)OC[C@@H]1C[C@@H](n2ccc3c(N[C@H]4CCc5ccccc54)ncnc32)C[C@@H]1O [MLN4924]
